pIC50: −log10 of the molar value.
Test system: absence seizures
Experiment: not given
Conditions: childhood absence epilepsy; at 12 months; cited from earlier work
For `Nc1nnc(-c2cccc(Cl)c2Cl)c(N)n1` [Lamotrigine], the “patients in whom the seizures were completely controlled” value (shortened to “patients”) is given as 21%.
For `CCC1(C)CC(=O)NC1=O` (centres unmarked) [ethosuximide], the “patients” value is given as 45%.

Same assay, conditions: childhood absence epilepsy; at 16 weeks; assessed by video-EEG recordings; cited from earlier work
In the case of `Nc1nnc(-c2cccc(Cl)c2Cl)c(N)n1` [Lamotrigine], the “patients” value is given as 29%.
In the case of `CCC1(C)CC(=O)NC1=O` (centres unmarked) [ethosuximide], the “patients” value is listed as 53%.

Molecular target: T1, Human Cav3.1 calcium channel (Homo sapiens, UniProt O43497)
T1 construct: expressed in transfected cells; host or cells: HEK-293 natClytin/TASK1+Cav3.1 cell line
T1 sequence (O43497 whole entry): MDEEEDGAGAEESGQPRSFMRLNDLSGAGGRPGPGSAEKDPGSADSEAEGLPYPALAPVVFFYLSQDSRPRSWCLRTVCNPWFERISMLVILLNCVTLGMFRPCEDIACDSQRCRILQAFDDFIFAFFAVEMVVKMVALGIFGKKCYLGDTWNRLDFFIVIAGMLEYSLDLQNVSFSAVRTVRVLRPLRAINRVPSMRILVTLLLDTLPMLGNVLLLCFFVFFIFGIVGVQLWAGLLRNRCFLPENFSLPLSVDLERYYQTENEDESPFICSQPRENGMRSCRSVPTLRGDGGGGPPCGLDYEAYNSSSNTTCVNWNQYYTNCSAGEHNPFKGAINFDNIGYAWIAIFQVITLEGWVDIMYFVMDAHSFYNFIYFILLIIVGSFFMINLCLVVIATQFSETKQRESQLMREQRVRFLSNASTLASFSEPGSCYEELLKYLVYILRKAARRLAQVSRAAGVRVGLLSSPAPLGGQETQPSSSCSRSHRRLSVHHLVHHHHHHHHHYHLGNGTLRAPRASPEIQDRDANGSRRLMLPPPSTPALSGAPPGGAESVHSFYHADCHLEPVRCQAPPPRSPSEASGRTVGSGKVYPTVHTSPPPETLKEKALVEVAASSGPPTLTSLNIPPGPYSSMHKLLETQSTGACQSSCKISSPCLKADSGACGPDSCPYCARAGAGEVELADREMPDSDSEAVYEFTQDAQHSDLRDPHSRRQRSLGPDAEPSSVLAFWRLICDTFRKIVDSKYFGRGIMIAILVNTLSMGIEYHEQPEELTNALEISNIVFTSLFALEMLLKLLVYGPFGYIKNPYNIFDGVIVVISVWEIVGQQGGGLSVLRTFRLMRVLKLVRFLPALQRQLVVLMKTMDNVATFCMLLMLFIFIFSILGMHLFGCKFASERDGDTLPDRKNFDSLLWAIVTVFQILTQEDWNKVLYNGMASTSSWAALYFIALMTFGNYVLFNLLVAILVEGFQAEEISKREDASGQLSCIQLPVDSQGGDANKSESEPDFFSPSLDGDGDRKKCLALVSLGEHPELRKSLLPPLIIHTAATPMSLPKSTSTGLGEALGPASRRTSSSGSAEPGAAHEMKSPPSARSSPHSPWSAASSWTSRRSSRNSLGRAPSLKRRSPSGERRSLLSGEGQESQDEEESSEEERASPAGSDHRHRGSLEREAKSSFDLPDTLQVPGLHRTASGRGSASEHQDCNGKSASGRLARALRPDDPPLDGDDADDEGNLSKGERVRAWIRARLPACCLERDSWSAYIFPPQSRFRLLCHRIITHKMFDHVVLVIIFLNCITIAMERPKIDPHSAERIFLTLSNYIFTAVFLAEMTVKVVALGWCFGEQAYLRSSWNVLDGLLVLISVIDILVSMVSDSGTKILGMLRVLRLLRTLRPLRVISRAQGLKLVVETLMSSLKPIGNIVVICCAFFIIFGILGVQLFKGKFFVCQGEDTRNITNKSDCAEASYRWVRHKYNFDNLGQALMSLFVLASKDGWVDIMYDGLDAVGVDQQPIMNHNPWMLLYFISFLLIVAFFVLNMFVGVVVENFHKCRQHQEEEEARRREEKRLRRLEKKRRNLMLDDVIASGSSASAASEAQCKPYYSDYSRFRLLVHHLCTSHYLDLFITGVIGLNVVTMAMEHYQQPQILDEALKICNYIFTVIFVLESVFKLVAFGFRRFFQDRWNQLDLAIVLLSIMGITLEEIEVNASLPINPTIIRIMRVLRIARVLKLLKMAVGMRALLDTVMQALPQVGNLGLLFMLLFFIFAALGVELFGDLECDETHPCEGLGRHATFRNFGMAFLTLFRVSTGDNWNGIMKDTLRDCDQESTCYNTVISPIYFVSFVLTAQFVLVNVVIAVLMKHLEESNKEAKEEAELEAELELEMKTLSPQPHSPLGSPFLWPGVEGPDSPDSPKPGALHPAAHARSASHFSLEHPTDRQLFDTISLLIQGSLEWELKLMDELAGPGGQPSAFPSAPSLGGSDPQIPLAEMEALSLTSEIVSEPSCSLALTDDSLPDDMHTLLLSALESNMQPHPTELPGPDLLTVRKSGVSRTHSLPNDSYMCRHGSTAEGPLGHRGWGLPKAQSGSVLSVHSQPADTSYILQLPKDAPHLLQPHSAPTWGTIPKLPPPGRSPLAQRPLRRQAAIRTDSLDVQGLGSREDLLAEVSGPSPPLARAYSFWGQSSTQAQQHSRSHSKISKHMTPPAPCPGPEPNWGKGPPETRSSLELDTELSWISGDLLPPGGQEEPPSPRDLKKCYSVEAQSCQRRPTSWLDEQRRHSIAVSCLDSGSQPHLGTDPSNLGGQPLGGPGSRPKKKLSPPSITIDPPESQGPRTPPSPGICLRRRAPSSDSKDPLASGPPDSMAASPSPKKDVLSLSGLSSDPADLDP
Experiment: Human Cav3.1 calcium channel patch clamp assay (SyncroPatch 384PE; single point and IC50, voltage dependent block)
Format: cell-based
Conditions: Testing Conc 1.25; HEK-293 natClytin/TASK1+Cav3.1 cell line, patch clamp
Outline: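 Automated whole-cell patch clamp at room temperature, cells held at −120 mV; 100 ms step to −20 mV (resting block), then 1600 ms at −65 mV and a second −20 mV step (voltage-dependent block), every 15 s. Peak currents averaged over last 3 sweeps; % inhibition relative to nickel-sensitive current.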
With `CC(C)(C)NC(=O)CN1C[C@@H]2C[C@H]1CN2CC(=O)NC12CC3CC(C1)CC(OC(F)F)(C3)C2` [Compound 346] the “% Inhibition (Single Point Data)” value was 86.624%.

Same assay, conditions: voltage dependent block (VDB); HEK-293 natClytin/TASK1+Cav3.1 cell line; read-out: Cav3.1 IC50
In the case of `CC(C)(C)NC(=O)CN1C[C@@H]2C[C@H]1CN2CC(=O)NC12CC3CC(C1)CC(OC(F)F)(C3)C2` [Compound 346], the pIC50 was 6.40.
In the case of `O=C(CN1C[C@@H]2C[C@H]1CN2CC(=O)NC1(C(F)(F)F)CC1)Nc1cc(F)c(F)c(Cl)c1` [Compound 347], the pIC50 was > 7.11.
With `CC(C)(C)NC(=O)CN1C[C@@H]2C[C@H]1CN2CC(=O)Nc1cc(F)c(F)c(Cl)c1` [Compound 348] the pIC50 was > 7.11.
For `O=C(CN1CC2CC(C1)N2CC(=O)NC1(C(F)(F)F)CC1)Nc1cc(F)c(F)c(Cl)c1` [Compound 349], the pIC50 was > 7.11.
With `CC(C)(C)NC(=O)CN1C2CC1CN(CC(=O)Nc1cc(F)c(F)c(Cl)c1)C2` [Compound 350] the pIC50 was > 7.11.
Work on `COc1cc(NC(=O)CN2C[C@@H]3C[C@H]2CN3CC(=O)NC2(C(F)(F)F)CC2)cc(F)c1F` [Compound 351] yielded a pIC50 of 6.88.
In the case of `COc1cc(NC(=O)CN2CC3CC(C2)N3CC(=O)NC2(C(F)(F)F)CC2)cc(F)c1F` [Compound 352], the pIC50 was 6.88.
Work on `COc1cc(NC(=O)CN2CC3CC(C2)N3CC(=O)NC(C)(C)C)cc(F)c1F` [Compound 353] yielded a pIC50 of 7.01.
`COc1cc(NC(=O)CN2C[C@@H]3C[C@H]2CN3CC(=O)NC(C)(C)C)cc(F)c1F` [Compound 354] gave a pIC50 of 7.03.
With `Cc1ccc(NC(=O)CN2C[C@@H]3C[C@H]2CN3CC(=O)NC2(C(F)(F)F)CC2)cc1Cl` [Compound 355] the pIC50 was 5.97.
In the case of `CC(C)(C)NC(=O)CN1C[C@@H]2C[C@H]1CN2CC(=O)Nc1cc(F)c(F)c(OC(F)F)c1` [Compound 356], the pIC50 was 7.13.
In the case of `CC(C)(C)NC(=O)CN1C[C@@H]2C[C@H]1CN2CC(=O)Nc1ccc(Cl)c(OC(F)F)c1` [Compound 357], the pIC50 was 7.09.
Work on `O=C(CN1C[C@@H]2C[C@H]1CN2CC(=O)NC1(C(F)(F)F)CC1)Nc1ccc(Cl)c(OC(F)F)c1` [Compound 358] yielded a pIC50 of 6.76.
`O=C(CN1C[C@@H]2C[C@H]1CN2CC(=O)NC1(C(F)(F)F)CC1)Nc1cc(F)c(F)c(OC(F)F)c1` [Compound 359] showed a pIC50 of 6.75.
With `CC(C)(C)NC(=O)CN1C2CC1CN(CC(=O)Nc1cc(F)c(F)c(OC(F)F)c1)C2` [Compound 360] the pIC50 was 7.12.
`O=C(CN1CC2CC(C1)N2CC(=O)NC1(C(F)(F)F)CC1)Nc1cc(F)c(F)c(OC(F)F)c1` [Compound 361] gave a pIC50 of 6.90.
`Cc1ccc(NC(=O)CN2C[C@@H]3C[C@H]2CN3CC(=O)NC(C)(C)C)cc1Cl` [Compound 362] gave a pIC50 of 6.43.
For `CC(C)(C)NC(=O)CN1CCO[C@H](CNC(=O)c2ccc(F)c(OC(F)F)c2)C1` [Compound 367], the pIC50 was 5.24.
With `CC(C)(C)NC(=O)CN1CC2COCC(C1)C2CC(=O)Nc1cc(F)cc(Cl)c1` (centres unmarked) [Compound 368] the pIC50 was 6.90.
`CC(C)(C)NC(=O)CN1C[C@H]2COC[C@@H](C1)[C@@H]2CNC(=O)c1cc(F)cc(Cl)c1` [Compound 369] gave a pIC50 of 6.30.
`CC(C)(C)NC(=O)CN1C[C@H]2COC[C@@H](C1)[C@H]2CNC(=O)c1cc(F)cc(Cl)c1` [Compound 370] showed a pIC50 of 5.76.
`CC(C)(C)NC(=O)CN1C[C@H]2COC[C@@H](C1)[C@H]2CC(=O)Nc1cc(F)cc(Cl)c1` [Compound 371] showed a pIC50 of 5.71.
`CC(C)(C)NC(=O)CN1C[C@H]2COC[C@@H](C1)[C@@H]2CC(=O)Nc1cc(F)cc(Cl)c1` [Compound 372] gave a pIC50 of 6.79.
For `CC(C)(C)NC(=O)CN1C2CC(CC(=O)Nc3cc(F)cc(Cl)c3)CC1C2` (centres unmarked) [Compound 373], the pIC50 was 5.23.
